From patent US4975462A, “Antiarthritic α-arylcarbamoyl cyanoacetic acid derivatives” (Bristol-Myers Company, priority 1988, dated 1990)

Tests used:
[1] = tested on: adjuvant-induced arthritis; details: J. Med. Chem., 1979, 22:1385-9; cited from earlier work
[2] = tested on: adjuvant-induced polyarthritis (Mycobacterium butyricum); experiment: Modified developing adjuvant arthritis in rats (adjuvant-induced polyarthritis, AIP); format: in vivo, male Lewis rats; details: p.o., from d. 1-8
Experimental: A. Modified developing adjuvant arthritis in rats. This test is based on the procedure originally described by Pearson (Proc. Soc. Biol. Med., 1956, pp 91-5). Each experimental group used six male Lewis rats weighing approx. 250 gm. Arthritis was produced by a single intradermal injection of Mycobacterium butyricum (0.6 mg in 0.1 ml mineral oil) into the base of the tail. Test compounds were administered orally, once daily, starting on the day of inoculation (day 1) through day 8. The paw volume (average of two hind paws) was measured by the mercury displacement method at least twice weekly during the course of the experiment (40 to 42 days). The efficacy of a compound was expressed as the percent reduction of hind paw volume of treated vs. untreated rats using the following equation: [formula] PC=positive control (not treated, arthritic) NC=negative control (not treated, non-arthritic) RX=drug group (treated, arthritic) | ^(a) once daily, p.o., from d. 1-8. | ^(b) % Inhibition of paw edema: O = <25; + = 25-<40; ++ = 40-<60; +++ | = 60-80; ++++ = 80-100.

[3] = tested on: carrageenin-induced paw edema; experiment: Carrageenin induced paw edema in the rat (CIP); format: in vivo, male Sprague Dawley rats; details: single oral dose of 50 mg/kg 30 min. prior to carrageenin injection; 4 hrs. after carrageenin injection
Experimental: B. Carrageenin induced paw edema in the rat.
This test is based on the procedure originally described by Holsapple and Yim (Inflammation, 1984, 8:223). Six male Sprague Dawley rats weighing approx. 300 gm were used in each experimental group. The rats had been starved for 24 hours prior to injection of 0.1 ml of 1% carrageenin into the plantar surface of the left hind paw. Test compounds were dosed orally 30 minutes prior to carrageenin administration. The volumes of the left hind paws were measured by mercury displacement at 2,4, and 6 hours following carrageenin injection. The efficacy of a compound was expressed as the percent inhibition of carrageenin injected paw volume as compared to non-injected paw using the following equation: [formula]
C=Vehicle control group (left paw volume-right paw volume)
RX=Drug treated group (left paw volume-right paw volume)
The peak of drug effects usually occurred 2-4 hours following carrageenin injection.
^(c) test compound administered as a single oral dose of 50 mg/kg 30
min. prior to carrageenin injection. % Inhibition determined 4 hrs. after
carrageenin injection; I = <25% reduction in paw volume and A =
≥25% reduction in paw volume.

Compound | inhibition of adjuvant-induced arthritis in rats [1] | AIP Inhib. score d. 20-22 (% Inhibition of paw edema) ([2]; 50 mg/kg once daily) | AIP Inhib. score d. 40-42 (% Inhibition of paw edema) ([2]; 50 mg/kg once daily) | CIP (% Inhibition, reduction in paw volume) [3] | AIP Inhib. score d. 20-22 (% Inhibition of paw edema) ([2]; 100 mg/kg once daily) | AIP Inhib. score d. 40-42 (% Inhibition of paw edema) ([2]; 100 mg/kg once daily)
N#CCC(=O)c1ccccc1 [Benzoylacetonitrile (I), Benzoylacetonitrile] | effective inhibitors | – | – | – | – | –
CNC(=O)C(C#N)C(=O)Nc1ccc(C(F)(F)F)cc1 (stereo not drawn) [Example 3, β-Methylamino-β-oxo-α-(4-trifluoromethylphenyl) carbamoylpropionitrile] | – | +++ (60-80) | +++ (60-80) | A (≥25% reduction in paw volume) | – | –
COC(=O)C(C#N)C(=O)Nc1ccc(C(F)(F)F)cc1 (stereo not drawn) [Example 2, βMethoxy-β-oxo-α-(4-trifluoromethylphenyl)carbamoylpropionitrile] | – | – | – | I (<25% reduction in paw volume) | +++ (60-80) | +++ (60-80)
CSC(=O)C(C#N)C(=O)Nc1ccc(C(F)(F)F)cc1 (stereo not drawn) [Example 1, β-Methylthio-β-oxo-α-(4-trifluoromethylphenyl)carbamoylpropionitrile] | – | ++++ (80-100) | ++++ (80-100) | A (≥25% reduction in paw volume) | – | –
